Active and inactive are the calls of the source.
Legend:
[1] = molecular target: Ras and Rab interactor 1/Tyrosine-protein kinase ABL1 (Homo sapiens, UniProt P00519+Q13671); assay type: functional;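 also: biochemical TR-FRET dose-response test measuring inhibition of binding between Rin1 and Abl proteins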
[2] = A549 cell cytotoxicity, dose response, cytotoxicity control, plate reader, cherry-pick, antagonist series (AID 743412); assay type: functional, cell-based
[3] = HepG2 cell cytotoxicity, dose response, cytotoxicity control, plate reader, cherry-pick, antagonist series (AID 743416); assay type: functional, cell-based
[4] = LGR2 antagonists, dose response, cell-based, HEK293, CRE-luciferase reporter, cherry pick, set 2 (AID 743343); assay type: functional;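 also: transfected cells were stimulated with diluted bursicon conditioned medium after compound addition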
[5] = MC4R antagonists, dose response, counter-screen for LGR2 antagonist project, cell-based, plate reader, cherry pick (AID 743444); assay type: functional;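 also: transfected HEK 293 cells stimulated with alpha-MSH peptide; potency of inhibitors of the alpha-MSH evoked signal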
[6] = HEK293 cell cytotoxicity, dose response, cytotoxicity control, plate reader, cherry-picked samples (AID 743446); assay type: functional, cell-based
[7] = molecular target: T1, Replicative DNA helicase DnaB (Mycobacterium tuberculosis, UniProt P9WMR3); assay: DnaB intein splicing inhibitors, dose response, biochemical, cell-free fluorescence (AID 449749); assay type: functional
T1 sequence (P9WMR3 whole entry): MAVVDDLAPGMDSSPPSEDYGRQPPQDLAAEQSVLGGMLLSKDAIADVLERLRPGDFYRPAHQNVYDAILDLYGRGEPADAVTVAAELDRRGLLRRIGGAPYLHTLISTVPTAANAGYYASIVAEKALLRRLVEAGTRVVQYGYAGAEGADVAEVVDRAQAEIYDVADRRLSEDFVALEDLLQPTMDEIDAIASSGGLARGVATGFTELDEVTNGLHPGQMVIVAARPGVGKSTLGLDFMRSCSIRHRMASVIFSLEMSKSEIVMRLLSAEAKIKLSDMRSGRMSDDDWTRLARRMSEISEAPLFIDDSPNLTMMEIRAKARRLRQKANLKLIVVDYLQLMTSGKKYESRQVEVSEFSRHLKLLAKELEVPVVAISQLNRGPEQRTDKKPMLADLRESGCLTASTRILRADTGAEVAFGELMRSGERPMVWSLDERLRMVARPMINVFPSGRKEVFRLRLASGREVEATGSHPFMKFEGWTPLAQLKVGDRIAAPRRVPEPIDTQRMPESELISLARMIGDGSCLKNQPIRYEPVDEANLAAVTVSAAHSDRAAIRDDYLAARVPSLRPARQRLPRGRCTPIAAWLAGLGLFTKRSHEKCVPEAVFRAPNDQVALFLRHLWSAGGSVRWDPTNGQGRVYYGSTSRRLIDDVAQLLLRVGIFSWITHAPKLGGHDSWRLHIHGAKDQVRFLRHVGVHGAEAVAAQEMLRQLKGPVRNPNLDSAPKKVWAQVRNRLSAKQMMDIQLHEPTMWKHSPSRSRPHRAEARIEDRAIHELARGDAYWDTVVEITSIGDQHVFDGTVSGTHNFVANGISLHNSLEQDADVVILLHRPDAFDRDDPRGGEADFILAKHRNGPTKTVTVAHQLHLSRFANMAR

Protein RecA = molecular target: T2, Protein RecA (Mycobacterium tuberculosis, UniProt P9WHJ3); assay: Fluorescence Cell-Free Homogeneous Dose Retest to Identify Inhibitors of RecA-Intein Splicing Activity. [Related pubchem assays (depositor defined):AID2097, AID2223, AID489010, AID492950]; assay type: functional
T2 sequence (P9WHJ3 whole entry): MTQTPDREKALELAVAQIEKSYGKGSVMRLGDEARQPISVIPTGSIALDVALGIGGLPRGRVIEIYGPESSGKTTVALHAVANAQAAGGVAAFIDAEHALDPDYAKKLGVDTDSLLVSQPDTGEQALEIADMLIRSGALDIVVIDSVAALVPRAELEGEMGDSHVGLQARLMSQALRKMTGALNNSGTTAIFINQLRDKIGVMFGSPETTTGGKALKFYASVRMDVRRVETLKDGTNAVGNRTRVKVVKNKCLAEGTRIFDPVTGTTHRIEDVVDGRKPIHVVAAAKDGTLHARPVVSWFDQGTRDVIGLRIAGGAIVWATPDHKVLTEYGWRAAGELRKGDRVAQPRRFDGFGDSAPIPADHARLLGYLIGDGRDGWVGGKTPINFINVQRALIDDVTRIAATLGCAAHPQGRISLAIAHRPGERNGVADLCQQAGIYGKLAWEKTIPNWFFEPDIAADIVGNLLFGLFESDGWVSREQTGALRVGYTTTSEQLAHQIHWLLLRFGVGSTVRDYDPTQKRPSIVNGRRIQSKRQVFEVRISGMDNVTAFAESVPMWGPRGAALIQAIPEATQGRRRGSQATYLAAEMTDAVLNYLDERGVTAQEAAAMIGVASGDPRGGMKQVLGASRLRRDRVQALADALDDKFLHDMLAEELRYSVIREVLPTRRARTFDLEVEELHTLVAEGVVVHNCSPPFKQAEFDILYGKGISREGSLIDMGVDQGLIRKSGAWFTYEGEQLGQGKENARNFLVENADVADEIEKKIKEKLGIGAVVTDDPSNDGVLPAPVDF

[8] = molecular target: T3, Sentrin-specific protease 8 (Homo sapiens, UniProt Q96LD8); assay type: functional
T3 sequence (Q96LD8 whole entry): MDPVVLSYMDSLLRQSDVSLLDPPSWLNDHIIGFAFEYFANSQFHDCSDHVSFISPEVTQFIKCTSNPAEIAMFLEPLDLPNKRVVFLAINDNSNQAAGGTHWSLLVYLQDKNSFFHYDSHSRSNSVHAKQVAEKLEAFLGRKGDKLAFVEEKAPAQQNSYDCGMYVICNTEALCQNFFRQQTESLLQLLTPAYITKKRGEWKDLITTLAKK

[9] = molecular target: T3, Sentrin-specific protease 8; assay type: functional; remark: listed apart in the source
[10] = molecular target: Tyrosyl-DNA phosphodiesterase 2 (Homo sapiens, UniProt O95551); assay: human TDP2 enzyme inhibitors, dose response, biochemical, epi absorbance, IC50 (AID 743297)
[11] = molecular target: T4, DNA repair and recombination protein RAD54-like (Homo sapiens, UniProt Q92698); assay: inhibitors of human RAD54 branch migration, confirmation, biochemical, fluorescence, cherry-picked samples, dose series (AID 651657); assay type: functional
T4 sequence (Q92698 whole entry): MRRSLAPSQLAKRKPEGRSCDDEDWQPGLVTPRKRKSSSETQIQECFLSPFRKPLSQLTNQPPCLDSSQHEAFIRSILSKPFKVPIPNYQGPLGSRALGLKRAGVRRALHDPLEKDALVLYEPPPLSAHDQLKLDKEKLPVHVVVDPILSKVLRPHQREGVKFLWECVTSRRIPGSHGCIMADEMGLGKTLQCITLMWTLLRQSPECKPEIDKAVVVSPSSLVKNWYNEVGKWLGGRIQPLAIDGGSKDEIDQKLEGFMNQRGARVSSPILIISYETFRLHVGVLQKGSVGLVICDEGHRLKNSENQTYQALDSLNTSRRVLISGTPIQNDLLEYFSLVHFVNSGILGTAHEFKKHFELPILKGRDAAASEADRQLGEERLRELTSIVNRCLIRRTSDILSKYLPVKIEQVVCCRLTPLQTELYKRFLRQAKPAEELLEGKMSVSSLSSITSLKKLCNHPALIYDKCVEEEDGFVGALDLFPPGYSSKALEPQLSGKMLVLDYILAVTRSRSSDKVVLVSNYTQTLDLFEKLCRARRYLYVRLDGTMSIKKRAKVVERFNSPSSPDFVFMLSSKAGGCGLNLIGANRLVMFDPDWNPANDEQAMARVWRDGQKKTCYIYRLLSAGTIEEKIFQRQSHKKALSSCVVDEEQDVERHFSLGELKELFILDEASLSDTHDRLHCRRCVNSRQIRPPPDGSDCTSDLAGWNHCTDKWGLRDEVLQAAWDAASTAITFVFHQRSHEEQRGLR

[12] = molecular target: Endoplasmic reticulum aminopeptidase 1 (Homo sapiens, UniProt Q9NZ08); assay: ERAP1 aminopeptidase inhibitors, dose response, biochemical, cherry-pick, set 2, plate reader (AID 743314)
Major prion protein = Major prion protein (Homo sapiens, UniProt P04156); assay type: functional, cell-based
[13] = HepG2 cell cytotoxicity, dose response, cytotoxicity control, ATP luminescence, cherry-pick, activator set 2 (AID 1053143); assay type: functional, cell-based

Ras and Rab interactor 1/Tyrosine-protein kinase ABL1, sequence (P00519 whole entry): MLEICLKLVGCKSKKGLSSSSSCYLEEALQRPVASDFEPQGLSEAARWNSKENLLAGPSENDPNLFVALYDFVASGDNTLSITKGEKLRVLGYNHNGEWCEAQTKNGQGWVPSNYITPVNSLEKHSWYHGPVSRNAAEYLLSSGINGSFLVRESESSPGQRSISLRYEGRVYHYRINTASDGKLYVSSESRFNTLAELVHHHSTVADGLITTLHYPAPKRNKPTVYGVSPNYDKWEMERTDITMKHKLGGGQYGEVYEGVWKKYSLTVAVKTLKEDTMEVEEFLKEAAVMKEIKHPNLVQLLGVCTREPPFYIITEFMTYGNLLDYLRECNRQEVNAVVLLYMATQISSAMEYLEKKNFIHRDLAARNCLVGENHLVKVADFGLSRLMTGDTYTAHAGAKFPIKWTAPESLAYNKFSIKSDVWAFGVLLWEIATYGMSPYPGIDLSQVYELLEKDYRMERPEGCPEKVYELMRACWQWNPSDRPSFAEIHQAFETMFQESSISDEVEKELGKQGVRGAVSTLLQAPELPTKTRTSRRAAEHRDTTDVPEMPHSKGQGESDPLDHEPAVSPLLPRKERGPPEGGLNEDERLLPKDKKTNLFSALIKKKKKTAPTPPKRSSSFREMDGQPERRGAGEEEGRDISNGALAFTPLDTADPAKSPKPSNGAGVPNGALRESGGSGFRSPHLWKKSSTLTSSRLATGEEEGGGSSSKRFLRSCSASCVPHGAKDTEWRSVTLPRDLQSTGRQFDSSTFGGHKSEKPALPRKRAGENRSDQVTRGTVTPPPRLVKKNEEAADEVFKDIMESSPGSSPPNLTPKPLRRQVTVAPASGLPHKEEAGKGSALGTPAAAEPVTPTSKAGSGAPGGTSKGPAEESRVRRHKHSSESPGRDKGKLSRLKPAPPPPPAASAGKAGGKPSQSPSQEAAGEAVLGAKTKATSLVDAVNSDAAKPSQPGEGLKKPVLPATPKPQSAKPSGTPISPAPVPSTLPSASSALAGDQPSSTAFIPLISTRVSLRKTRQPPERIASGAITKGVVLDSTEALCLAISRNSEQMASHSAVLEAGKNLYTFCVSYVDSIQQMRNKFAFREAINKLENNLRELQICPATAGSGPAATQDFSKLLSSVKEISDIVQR
Ras and Rab interactor 1/Tyrosine-protein kinase ABL1, sequence (Q13671 whole entry): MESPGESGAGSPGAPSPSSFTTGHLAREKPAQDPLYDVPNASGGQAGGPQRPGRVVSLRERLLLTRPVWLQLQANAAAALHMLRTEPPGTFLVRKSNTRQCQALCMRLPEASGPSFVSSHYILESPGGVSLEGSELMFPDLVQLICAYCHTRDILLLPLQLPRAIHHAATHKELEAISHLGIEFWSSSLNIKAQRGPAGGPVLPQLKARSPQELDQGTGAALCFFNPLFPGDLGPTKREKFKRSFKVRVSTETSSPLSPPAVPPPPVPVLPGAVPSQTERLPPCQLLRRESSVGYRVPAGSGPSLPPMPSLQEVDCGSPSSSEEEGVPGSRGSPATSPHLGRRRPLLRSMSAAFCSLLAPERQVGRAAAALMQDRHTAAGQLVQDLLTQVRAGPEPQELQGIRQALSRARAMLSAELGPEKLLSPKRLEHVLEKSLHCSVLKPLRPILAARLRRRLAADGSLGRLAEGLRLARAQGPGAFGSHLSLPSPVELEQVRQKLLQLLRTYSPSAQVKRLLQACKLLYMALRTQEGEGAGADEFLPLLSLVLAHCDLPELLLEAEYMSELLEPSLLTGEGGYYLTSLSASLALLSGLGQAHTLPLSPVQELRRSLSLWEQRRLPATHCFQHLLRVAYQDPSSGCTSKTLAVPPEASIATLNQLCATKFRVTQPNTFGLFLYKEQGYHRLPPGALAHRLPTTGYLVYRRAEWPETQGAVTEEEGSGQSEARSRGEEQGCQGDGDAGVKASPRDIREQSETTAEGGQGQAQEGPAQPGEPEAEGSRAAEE
Endoplasmic reticulum aminopeptidase 1, sequence (Q9NZ08 whole entry): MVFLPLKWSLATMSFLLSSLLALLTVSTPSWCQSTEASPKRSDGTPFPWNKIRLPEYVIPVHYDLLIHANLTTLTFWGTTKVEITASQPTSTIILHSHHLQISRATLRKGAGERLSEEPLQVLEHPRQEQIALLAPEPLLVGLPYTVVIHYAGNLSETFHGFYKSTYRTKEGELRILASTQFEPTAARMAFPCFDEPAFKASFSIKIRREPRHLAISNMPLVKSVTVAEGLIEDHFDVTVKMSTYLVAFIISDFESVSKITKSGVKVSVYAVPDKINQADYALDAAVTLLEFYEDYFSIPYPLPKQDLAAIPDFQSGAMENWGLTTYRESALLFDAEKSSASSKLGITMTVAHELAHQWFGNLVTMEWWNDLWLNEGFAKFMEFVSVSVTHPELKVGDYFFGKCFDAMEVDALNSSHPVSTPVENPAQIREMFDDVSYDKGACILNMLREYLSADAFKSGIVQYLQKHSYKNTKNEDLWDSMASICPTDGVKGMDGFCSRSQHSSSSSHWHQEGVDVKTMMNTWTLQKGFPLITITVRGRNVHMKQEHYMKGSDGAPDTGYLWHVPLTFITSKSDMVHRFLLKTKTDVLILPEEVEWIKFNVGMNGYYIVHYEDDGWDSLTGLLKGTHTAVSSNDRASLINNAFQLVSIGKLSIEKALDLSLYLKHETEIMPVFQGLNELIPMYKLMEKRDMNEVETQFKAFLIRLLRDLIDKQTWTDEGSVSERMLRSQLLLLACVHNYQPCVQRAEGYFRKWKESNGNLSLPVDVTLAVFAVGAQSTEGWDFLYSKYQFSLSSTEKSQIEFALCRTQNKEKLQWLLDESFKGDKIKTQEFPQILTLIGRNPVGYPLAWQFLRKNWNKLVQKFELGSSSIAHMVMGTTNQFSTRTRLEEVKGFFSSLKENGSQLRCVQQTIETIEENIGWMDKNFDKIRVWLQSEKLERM
Tyrosyl-DNA phosphodiesterase 2, sequence (O95551 whole entry): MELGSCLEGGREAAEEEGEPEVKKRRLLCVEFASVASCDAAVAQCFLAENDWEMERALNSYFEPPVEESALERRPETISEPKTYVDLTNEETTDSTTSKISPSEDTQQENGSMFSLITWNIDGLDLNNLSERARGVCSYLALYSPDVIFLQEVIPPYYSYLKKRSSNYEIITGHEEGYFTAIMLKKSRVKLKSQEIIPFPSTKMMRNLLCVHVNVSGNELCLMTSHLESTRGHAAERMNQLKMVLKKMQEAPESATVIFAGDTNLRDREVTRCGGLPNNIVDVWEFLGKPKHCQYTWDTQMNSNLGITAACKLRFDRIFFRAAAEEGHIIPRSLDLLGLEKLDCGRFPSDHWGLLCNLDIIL

Structure (SMILES): CCOC(=O)c1ccc(NC(=O)COc2ccccc2CNCCc2ccccc2)cc1
- IC50 [1]: 25.9 µM (inactive)
- AC50 [2]: 10 µM (active)
- AC50 [3]: 13.9 µM (active)
- AC50 [4]: 17.4 µM (active)
- AC50 [5]: 27.7 µM (active)
- AC50 [6]: 15.4 µM (active)

Structure (SMILES): COC(=O)c1ccccc1-c1ccc(C(c2c(C)n[nH]c2O)c2c(C)n[nH]c2O)o1
- AC50 [7]: 0.279 µM (active)
- EC50 (Protein RecA): 0.214 µM (active)
- IC50 [8]: 18.6 µM (active)
- IC50 [9]: 8.91 µM (active)
- IC50 [10]: 51.2 µM (inactive)

Structure (SMILES): CN1CCCC1CCNc1ccc2c(=O)c3ccccc3oc2c1 (stereo unspecified)
- AC50 [11]: 21.1 µM (active)
- AC50 [12]: 4.52 µM (active)

Structure (SMILES): CCOC(=O)C(CC)Sc1cc(C)nc2ccc(OC)cc12 (stereo unspecified)
- IC50 (Major prion protein): 5.29 µM (active)
- IC50 (cells): > 138 µM (inactive)

Structure (SMILES): Cc1occc1-c1nnc(SC(C)C(=O)Nc2ccccc2F)o1 (stereo unspecified)
- AC50 [13]: 19.3 µM (active)
